Measured values reported in patent US7632870B2, “Composition based on substituted 1,3-diphenylprop-2-en-1-one derivatives, preparation and uses thereof” (Genfit, priority 2002, dated 2009).
Values belong to the compound of their own block, whether it stands above or below them.

How the values were obtained:
LDL = experiment: Protection against LDL oxidation by copper (conjugated diene formation); type: biochemical; settings: compound at 10^-4M
Protocol: LDL oxidation is an important alteration and plays a predominant role in the establishment and development of atherosclerosis (Jurgens, Hoff et al. 1987). […] Unless otherwise indicated, the reagents were from Sigma (St Quentin, France).
LDL were prepared according to the method described by Lebeau et al. (Lebeau, Furman et al. 2000).
The solutions of test compounds were prepared at 10^−2 M concentration in bicarbonate buffer (pH 9) and diluted in PBS to obtain final concentrations ranging from 0.1 to 100 μM for a total ethanol concentration of 1% (V/V).
Prior to oxidation, EDTA was removed from the LDL preparation by dialysis. Oxidation then took place at 30° C. by addition of 100 μl of 16.6 μM CuSO4 solution to 160 μL of LDL (125 μg protein/ml) and 20 μl of a test compound solution. The formation of dienes, the species under observation, was followed by measuring optical density at 234 nm in the samples treated with the compounds but in the presence or absence of copper. Optical density at 234 nm was measured every 10 minutes for 8 hours in a thermostated spectrophotometer (Tecan Ultra 380). The analyses were performed in triplicate. The compounds were considered to have antioxidant activity when they induced a longer lag phase and reduced the rate of oxidation and the amount of dienes formed in comparison with the control sample. […] FIGS. 1, 2 and 3 give an example of the results illustrating the antioxidant properties of compounds 2 and 5.

PPARα = target: T1, PPARα (Homo sapiens, UniProt Q07869); experiment: PPARα/Gal4 transactivation system in RK13 cells (luciferase reporter); type: cell-based, rabbit; settings: 24 hours
T1 construct: expressed in transfected cells; host or cells: RK13 cells
T1 sequence (Q07869 239-466 limits assumed): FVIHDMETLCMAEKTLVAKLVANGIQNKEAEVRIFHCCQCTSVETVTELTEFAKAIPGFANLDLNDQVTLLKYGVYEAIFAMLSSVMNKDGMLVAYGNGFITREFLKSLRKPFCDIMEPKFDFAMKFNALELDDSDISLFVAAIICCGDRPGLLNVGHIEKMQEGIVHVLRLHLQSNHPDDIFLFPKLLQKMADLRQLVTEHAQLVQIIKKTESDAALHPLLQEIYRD
Protocol: RK13 cells were incubated with the different compounds at concentrations of 10, 30 and 100 μM or 1, 10 and 100 μM for 24 hours. The results are expressed as the induction factor (luminescent signal relative to untreated cells) after the different treatments.
PPAR activation was tested in vitro in RK13 fibroblast cell lines by measuring the transcriptional activity of chimeras composed of the DNA binding domain of the yeast gal4 transcription factor and the ligand binding domain of the different PPARs. These latter results were then confirmed in cell lines according to the following protocols:
RK13 cells were from ECACC (Porton Down, UK) and were grown in DMEM medium supplemented with 10% (V/N) fetal calf serum, 100 U/ml penicillin (Gibco, Paisley, UK) and 2 mM L-glutamine (Gibco, Paisley, UK). The culture medium was changed every two days. Cells were kept at 37° C. in a humidified 95% air/5% CO2 atmosphere.
The plasmids pG5TkpGL3, pRL-CMV, pGal4-hPPRAα, pGal4-hPPRAγ and pGal4-φ have been described by Raspe, Madsen et al. (1999). The pGal4-mPPRAα and pGal4-hPPRAγ constructs were obtained by cloning into the pGal4-φ vector of PCR-amplified DNA fragments corresponding to the DEF domains of the human PPARα and PPRAγ nuclear receptors.
[…] At the end of the experiment, the cells were lysed (Gibco, Paisley, UK) and luciferase activity was determined with a Dual-Luciferase™ Reporter Assay System kit (Promega, Madison, Wis., USA) according to the supplier's instructions as previously described (Raspe, Madsen et al. 1999).

[1] = test system: Apo E2/E2 transgenic mice; experiment: Effects on triglyceride and cholesterol metabolism in vivo
Protocol: Apo E2/E2 transgenic mice were kept on a 12-hour light/dark cycle at a constant temperature of 20±3° C. After a 1 week acclimation, the mice were weighed and divided into groups of 6 animals selected so that body weight would be uniformly distributed. The test compounds were suspended in carboxymethylcellulose and administered by intragastric gavage at the indicated doses, once a day for 7 or 8 days. Animals had access to food and water ad libitum. At the end of the experiment the animals were weighed and sacrificed under anesthesia. Blood was collected on EDTA. Plasma was prepared by centrifugation at 3000 rpm for 20 minutes. Liver samples were taken and stored frozen in liquid nitrogen for subsequent analysis.
Serum lipid concentrations (total cholesterol and free cholesterol, triglycerides and phospholipids) were determined by a colorimetric assay (Boehringer, Mannheim, Germany) according to the supplier's instructions. Serum concentrations of apolipoproteins AI, AII and CIII were determined as previously described (Raspe et al. J. Lipid Res. 40, 2099-2110, 1999, Asset G et al., Lipids, 34, 39-44, 1999).

SMILES: CC(C)(Oc1ccc(C(=O)/C=C/c2cc(C(C)(C)C)c(O)c(C(C)(C)C)c2)c(O)c1)C(=O)O [Compound 2, 1-[2-hydroxy-4-carboxydimethylmethyloxyphenyl]-3-[3.5-ditertbutyl-4-hydroxyphenyl]prop-2-en-1-one]
lag phase of conjugated diene formation (LDL; FIG. 1-1, copper alone 111 minutes): more than 480 minutes | rate of conjugated diene formation (LDL; FIG. 1-2, copper alone 2): not measurable because too low | maximum amount of conjugated dienes formed (LDL; FIG. 1-3, copper alone 348): 54.4 nmol per mg of LDL | decrease in conjugated diene formation (LDL; FIG. 1-3, versus copper alone): 84%

SMILES: CCCCCCCc1ccc(C(=O)/C=C/c2cc(C)c(OC(C)(C)C(=O)OC(C)(C)C)c(C)c2)cc1 [Compound 38, 1-[4-heptylphenyl]-3-[3,5-dimethyl-4-tertbutyloxycarbonyldimethylmethyloxyphenyl]prop-2-en-1-one]
Induction factor (luminescent signal relative to untreated cells) (PPARα; 1 μM): 14.70 | Induction factor (luminescent signal relative to untreated cells) (PPARα; 10 μM): 22 | Induction factor (luminescent signal relative to untreated cells) (PPARα; 10 μM, listed as Cp38): 22.22 | Induction factor (luminescent signal relative to untreated cells) (PPARα; 100 μM): 0.311

SMILES: CC(C)(Oc1ccc(/C=C/C(=O)c2ccccc2O)cc1)C(=O)O [Compound 4, 1-[2-hydroxyhenyl]-3-[4-carboxydimethylmethyloxyphenyl]pron-2-en-1-one]
Induction factor (luminescent signal relative to untreated cells) (PPARα; 10 μM): 4 | Induction factor (luminescent signal relative to untreated cells) (PPARα; 10 μM, listed as Cp4): 3.99 | Induction factor (luminescent signal relative to untreated cells) (PPARα; 30 μM): 22 | Induction factor (luminescent signal relative to untreated cells) (PPARα; 30 μM, listed as Cp4): 22.15 | Induction factor (luminescent signal relative to untreated cells) (PPARα; 100 μM): 60 | Induction factor (luminescent signal relative to untreated cells) (PPARα; 100 μM, listed as Cp4): 61.07

SMILES: Cc1cc(/C=C/C(=O)c2ccccc2O)cc(C)c1OC(C)(C)C(=O)O [Compound 11, 1-[2-hydroxyphenyl]-3-[3,5-dimethyl-4-carboxydimethylmethyloxyphenyl]prop-2-en-1-one]
Induction factor (luminescent signal relative to untreated cells) (PPARα; 1 μM): 1.20 | Induction factor (luminescent signal relative to untreated cells) (PPARα; 10 μM): 1.39 | Induction factor (luminescent signal relative to untreated cells) (PPARα; 100 μM, listed as Cp11): 10.19

SMILES: Cc1cc(/C=C/C(=O)c2ccc(Br)cc2)cc(C)c1OC(C)(C)C(=O)O [Compound 41, 1-[4-bromophenyl]-3-[3,5-dimethyl-4-carboxydimethylmethyloxyphenyl]prop-2-en-1-one]
Induction factor (luminescent signal relative to untreated cells) (PPARα; 1 μM): 34.61 | Induction factor (luminescent signal relative to untreated cells) (PPARα; 10 μM): 31 | Induction factor (luminescent signal relative to untreated cells) (PPARα; 10 μM, listed as Cp41): 31.18 | Induction factor (luminescent signal relative to untreated cells) (PPARα; 100 μM): 3.39 | triglycerides in large sized lipoparticles (exclusion chromatography) ([1]; 50 mg/kg/day for 8 days, FIG. 3-11): decrease | cholesterol in large sized lipoparticles (exclusion chromatography) ([1]; 50 mg/kg/day for 8 days, FIG. 3-12): decrease

SMILES: CC(C)(Oc1ccc(C(=O)/C=C/c2cc(Br)c(O)c(Br)c2)c(O)c1)C(=O)O [Compound 8, 1-[2-hydroxy-4-carboxydimethylmethyloxyphenyl]-3-[3.5-dibromo-4-hydroxyphenyl]prop-2-en-1-one]
Induction factor (luminescent signal relative to untreated cells) (PPARα; 10 μM): 0.62 | Induction factor (luminescent signal relative to untreated cells) (PPARα; 30 μM): 1.27 | Induction factor (luminescent signal relative to untreated cells) (PPARα; 100 μM): 10 | Induction factor (luminescent signal relative to untreated cells) (PPARα; 100 μM, listed as Cp8): 9.98

SMILES: CC(C)(Oc1ccc(C(=O)/C=C/c2ccc(Cl)cc2)c(O)c1)C(=O)O [Compound 18, 1-[2-hydroxy-4-carboxydimethylmethyloxyphenyl]-3-[4-chlorophenyil] prop-2-en-1-one]
lag phase of conjugated diene formation (LDL; FIG. 1-4, copper alone 178 minutes): 241 min | rate of conjugated diene formation (LDL; FIG. 1-5, copper alone 1.6): 1.4 nmol/min/mg of LDL | maximum amount of conjugated dienes formed (LDL; FIG. 1-6, copper alone 353): 305 nmol per mg of LDL

Second part, led by results:

Induction factor (luminescent signal relative to untreated cells) (PPARα; 1 μM): 13.48 | Induction factor (luminescent signal relative to untreated cells) (PPARα; 10 μM): 21.03 | Induction factor (luminescent signal relative to untreated cells) (PPARα; 100 μM): 7.01
SMILES: Cc1cc(/C=C/C(=O)c2ccc(Br)cc2O)cc(C)c1OC(C)(C)C(=O)O [Compound 25, 1-[2-hydroxy-4-bromophenyl]-3-[3,5-dimethyl-4-carboxydimethylmethyloxyphenyl]prop-2-en-1-one]

Induction factor (luminescent signal relative to untreated cells) (PPARα; 1 μM): 24.55 | Induction factor (luminescent signal relative to untreated cells) (PPARα; 10 μM): 27 | Induction factor (luminescent signal relative to untreated cells) (PPARα; 10 μM, listed as Cp37): 27.83 | Induction factor (luminescent signal relative to untreated cells) (PPARα; 100 μM): 0.02
SMILES: COc1cc(Cl)ccc1C(=O)/C=C/c1cc(C)c(OC(C)(C)C(=O)O)c(C)c1 [Compound 37, 1-[2-methyloxy-4-chlorophenyl]-3-[3,5-dimethyl-4-carboxydimethylmethyloxyphenyl]prop-2-en-1-one]

Induction factor (luminescent signal relative to untreated cells) (PPARα; 10 μM): 36.48 | Induction factor (luminescent signal relative to untreated cells) (PPARα; 30 μM): 50.37 | Induction factor (luminescent signal relative to untreated cells) (PPARα; 100 μM, listed as Cp7): 37.84
SMILES: Cc1cc(/C=C/C(=O)c2ccc(Cl)cc2O)cc(C)c1OC(C)(C)C(=O)O [Compound 7, 1-[2-hydroxy-4-chlorophenyl]-3-[3,5-dimethyl-4-carboxydimethylmethyloxyphenyl]prop-2-en-1-one]
triglycerides in large sized lipoparticles (exclusion chromatography) ([1]; gavage 200 mg/kg for 7 days, FIG. 3-3): decreased | cholesterol in large sized lipoparticles (exclusion chromatography) ([1]; gavage 200 mg/kg for 7 days, FIG. 3-4): decreased

Induction factor (luminescent signal relative to untreated cells) (PPARα; 1 μM): 3.77 | Induction factor (luminescent signal relative to untreated cells) (PPARα; 100 μM): 1.21
SMILES: COc1ccccc1C(=O)/C=C/c1cc(C)c(OC(C)(C)C(=O)O)c(C)c1 [Compound 31, 1-[2-methoxyphenyl]-3-[3,5-dimethyl-4-carboxydimethylmethyloxyphenyl]prop-2-en-1-one]
